# Test results reported in PMC5601738, “Facile total synthesis of lysicamine and the anticancer activities of the Ru^II, Rh^III, Mn^II and Zn^II complexes of lysicamine” (Oncotarget, 2017).
# Assays:
# [1] = test system: apoptosis genes in HepG2 cells; test: RT-qPCR array, human apoptosis PCR array (PAHS-012Z); assay type: cell-based; details: Hep-G2 cells, 14 μM, 24 h, vs control
# HepG2 cells = test: Uptake of metal complexes in HepG2 cells (ICP-MS); assay type: cell-based, human; details: HepG2, 2 at 7.0 μM, 3 at […], 8 h
# T-24 = test: MTT assay, T-24 cells; assay type: cell-based, human; details: 48 h
compound,measurement,setting,value
"COc1cc2ccnc3c2c(c1OC)-c1ccccc1C3=O.COc1cc2ccnc3c2c(c1OC)-c1ccccc1C3=O.COc1cc2ccnc3c2c(c1OC)-c1ccccc1C3=O.ClC(Cl)Cl.ClC(Cl)Cl.ClC(Cl)Cl.[Mn+2].[O-][Cl+3]([O-])([O-])[O-].[O-][Cl+3]([O-])([O-])[O-] [Complex 3, [Mn(LY)3](ClO4)2·3CHCl3]","Fold up/down-regulation, ABL1",[1],1.14
same,"Fold up/down-regulation, ACTB",[1],-3.23
same,"Fold up/down-regulation, AIFM1",[1],1.39
same,"Fold up/down-regulation, AKT1",[1],-1.50
same,"Fold up/down-regulation, APAF1",[1],-1.08
same,"Fold up/down-regulation, B2M",[1],1.32
same,"Fold up/down-regulation, BAD",[1],-1.23
same,"Fold up/down-regulation, BAG1",[1],-3.76
same,"Fold up/down-regulation, BAG3",[1],1.12
same,"Fold up/down-regulation, BAK1",[1],2.10
same,"Fold up/down-regulation, BAX",[1],1.03
same,"Fold up/down-regulation, BCL2",[1],1.08
same,"Fold up/down-regulation, BCL2A1",[1],15.30
same,"Fold up/down-regulation, BCL2L1",[1],-1.97
same,"Fold up/down-regulation, BCL2L2",[1],1.01
same,"Fold up/down-regulation, BCL2L10",[1],1.21
same,"Fold up/down-regulation, BCL2L11",[1],2.71
same,"Fold up/down-regulation, BCL10",[1],1.24
same,"Fold up/down-regulation, BFAR",[1],1.36
same,"Fold up/down-regulation, BID",[1],-1.24
same,"Fold up/down-regulation, BIK",[1],3.02
same,"Fold up/down-regulation, BIRC2",[1],1.65
same,"Fold up/down-regulation, BIRC3",[1],-1.79
same,"Fold up/down-regulation, BIRC5",[1],-1.29
same,"Fold up/down-regulation, BIRC6",[1],1.22
same,"Fold up/down-regulation, BNIP2",[1],1.48
same,"Fold up/down-regulation, BNIP3",[1],1.82
same,"Fold up/down-regulation, BNIP3L",[1],2.06
same,"Fold up/down-regulation, BRAF",[1],1.10
same,"Fold up/down-regulation, CASP1",[1],1.61
same,"Fold up/down-regulation, CASP2",[1],-1.21
same,"Fold up/down-regulation, CASP3",[1],1.46
same,"Fold up/down-regulation, CASP4",[1],1.39
same,"Fold up/down-regulation, CASP5",[1],1.47
same,"Fold up/down-regulation, CASP6",[1],1.46
same,"Fold up/down-regulation, CASP7",[1],1.23
same,"Fold up/down-regulation, CASP8",[1],1.13
same,"Fold up/down-regulation, CASP9",[1],3.47
same,"Fold up/down-regulation, CASP10",[1],-1.45
same,"Fold up/down-regulation, CASP14",[1],8.51
same,"Fold up/down-regulation, CD27",[1],4.42
same,"Fold up/down-regulation, CD40",[1],-1.09
same,"Fold up/down-regulation, CD40LG",[1],1.16
same,"Fold up/down-regulation, CD70",[1],-1.62
same,"Fold up/down-regulation, CFLAR",[1],1.19
same,"Fold up/down-regulation, CIDEA",[1],2.51
same,"Fold up/down-regulation, CIDEB",[1],-1.33
same,"Fold up/down-regulation, CRADD",[1],1.01
same,"Fold up/down-regulation, CYCS",[1],2.27
same,"Fold up/down-regulation, DAPK1",[1],-1.22
same,"Fold up/down-regulation, DFFA",[1],1.10
same,"Fold up/down-regulation, DIABLO",[1],1.68
same,"Fold up/down-regulation, FADD",[1],1.24
same,"Fold up/down-regulation, FAS",[1],-1.45
same,"Fold up/down-regulation, FASLG",[1],1.37
same,"Fold up/down-regulation, GADD45A",[1],3.98
same,"Fold up/down-regulation, GAPDH",[1],-1.17
same,"Fold up/down-regulation, HPRT1",[1],-1.87
same,"Fold up/down-regulation, HRK",[1],49.72
same,"Fold up/down-regulation, IGF1R",[1],-2.51
same,"Fold up/down-regulation, IL10",[1],1.11
same,"Fold up/down-regulation, LTA",[1],-1.40
same,"Fold up/down-regulation, LTBR",[1],-1.24
same,"Fold up/down-regulation, MCL1",[1],2.15
same,"Fold up/down-regulation, NAIP",[1],-1.05
same,"Fold up/down-regulation, NFKB1",[1],-1.85
same,"Fold up/down-regulation, NOD1",[1],-1.30
same,"Fold up/down-regulation, NOL3",[1],-1.07
same,"Fold up/down-regulation, PYCARD",[1],2.80
same,"Fold up/down-regulation, RIPK2",[1],1.45
same,"Fold up/down-regulation, RPLP0",[1],1.17
same,"Fold up/down-regulation, TNF",[1],16.66
same,"Fold up/down-regulation, TNFRSF1A",[1],-1.06
same,"Fold up/down-regulation, TNFRSF1B",[1],-1.05
same,"Fold up/down-regulation, TNFRSF9",[1],110.29
same,"Fold up/down-regulation, TNFRSF10A",[1],-1.02
same,"Fold up/down-regulation, TNFRSF10B",[1],1.11
same,"Fold up/down-regulation, TNFRSF11B",[1],3.22
same,"Fold up/down-regulation, TNFRSF21",[1],3.02
same,"Fold up/down-regulation, TNFRSF25",[1],2.68
same,"Fold up/down-regulation, TNFSF8",[1],3.25
same,"Fold up/down-regulation, TNFSF10",[1],1.70
same,"Fold up/down-regulation, TP53",[1],-1.05
same,"Fold up/down-regulation, TP53BP2",[1],1.53
same,"Fold up/down-regulation, TP73",[1],1.38
same,"Fold up/down-regulation, TRADD",[1],1.11
same,"Fold up/down-regulation, TRAF2",[1],-1.21
same,"Fold up/down-regulation, TRAF3",[1],1.01
same,"Fold up/down-regulation, XIAP",[1],1.26
same,"FoldChange, ABL1 relative expression",[1],1.14
same,"FoldChange, ACTB relative expression",[1],0.31
same,"FoldChange, AIFM1 relative expression",[1],1.39
same,"FoldChange, AKT1 relative expression",[1],0.67
same,"FoldChange, APAF1 relative expression",[1],0.92
same,"FoldChange, B2M relative expression",[1],1.32
same,"FoldChange, BAD relative expression",[1],0.81
same,"FoldChange, BAG1 relative expression",[1],0.27
same,"FoldChange, BAG3 relative expression",[1],1.12
same,"FoldChange, BAK1 relative expression",[1],2.10
same,"FoldChange, BAX relative expression",[1],1.03
same,"FoldChange, BCL2A1 relative expression",[1],15.30
same,"FoldChange, BCL2L1 relative expression",[1],0.51
same,"FoldChange, BCL2L2 relative expression",[1],1.01
same,"FoldChange, BCL2L10 relative expression",[1],1.21
same,"FoldChange, BCL2L11 relative expression",[1],2.71
same,"FoldChange, BCL2 relative expression",[1],1.08
same,"FoldChange, BCL10 relative expression",[1],1.24
same,"FoldChange, BFAR relative expression",[1],1.36
same,"FoldChange, BID relative expression",[1],0.80
same,"FoldChange, BIK relative expression",[1],3.02
same,"FoldChange, BIRC2 relative expression",[1],1.65
same,"FoldChange, BIRC3 relative expression",[1],0.56
same,"FoldChange, BIRC5 relative expression",[1],0.77
same,"FoldChange, BIRC6 relative expression",[1],1.22
same,"FoldChange, BNIP2 relative expression",[1],1.48
same,"FoldChange, BNIP3L relative expression",[1],2.06
same,"FoldChange, BNIP3 relative expression",[1],1.82
same,"FoldChange, BRAF relative expression",[1],1.10
same,"FoldChange, CASP1 relative expression",[1],1.61
same,"FoldChange, CASP2 relative expression",[1],0.83
same,"FoldChange, CASP3 relative expression",[1],1.46
same,"FoldChange, CASP4 relative expression",[1],1.39
same,"FoldChange, CASP5 relative expression",[1],1.47
same,"FoldChange, CASP6 relative expression",[1],1.46
same,"FoldChange, CASP7 relative expression",[1],1.23
same,"FoldChange, CASP8 relative expression",[1],1.13
same,"FoldChange, CASP9 relative expression",[1],3.47
same,"FoldChange, CASP10 relative expression",[1],0.69
same,"FoldChange, CASP14 relative expression",[1],8.51
same,"FoldChange, CD27 relative expression",[1],4.42
same,"FoldChange, CD40LG relative expression",[1],1.16
same,"FoldChange, CD40 relative expression",[1],0.92
same,"FoldChange, CD70 relative expression",[1],0.62
same,"FoldChange, CFLAR relative expression",[1],1.19
same,"FoldChange, CIDEA relative expression",[1],2.51
same,"FoldChange, CIDEB relative expression",[1],0.75
same,"FoldChange, CRADD relative expression",[1],1.01
same,"FoldChange, CYCS relative expression",[1],2.27
same,"FoldChange, DAPK1 relative expression",[1],0.82
same,"FoldChange, DFFA relative expression",[1],1.10
same,"FoldChange, DIABLO relative expression",[1],1.68
same,"FoldChange, FADD relative expression",[1],1.24
same,"FoldChange, FAS relative expression",[1],0.69
same,"FoldChange, FASLG relative expression",[1],1.37
same,"FoldChange, GADD45A relative expression",[1],3.98
same,"FoldChange, GAPDH relative expression",[1],0.86
same,"FoldChange, HPRT1 relative expression",[1],0.54
same,"FoldChange, HRK relative expression",[1],49.72
same,"FoldChange, IGF1R relative expression",[1],0.40
same,"FoldChange, IL10 relative expression",[1],1.11
same,"FoldChange, LTA relative expression",[1],0.71
same,"FoldChange, LTBR relative expression",[1],0.81
same,"FoldChange, MCL1 relative expression",[1],2.15
same,"FoldChange, NAIP relative expression",[1],0.95
same,"FoldChange, NFKB1 relative expression",[1],0.54
same,"FoldChange, NOD1 relative expression",[1],0.77
same,"FoldChange, NOL3 relative expression",[1],0.93
same,"FoldChange, PYCARD relative expression",[1],2.80
same,"FoldChange, RIPK2 relative expression",[1],1.45
same,"FoldChange, RPLP0 relative expression",[1],1.17
same,"FoldChange, TNF relative expression",[1],16.66
same,"FoldChange, TNFRSF1A relative expression",[1],0.94
same,"FoldChange, TNFRSF1B relative expression",[1],0.96
same,"FoldChange, TNFRSF9 relative expression",[1],110.29
same,"FoldChange, TNFRSF10A relative expression",[1],0.98
same,"FoldChange, TNFRSF10B relative expression",[1],1.11
same,"FoldChange, TNFRSF11B relative expression",[1],3.22
same,"FoldChange, TNFRSF21 relative expression",[1],3.02
same,"FoldChange, TNFRSF25 relative expression",[1],2.68
same,"FoldChange, TNFSF8 relative expression",[1],3.25
same,"FoldChange, TNFSF10 relative expression",[1],1.70
same,"FoldChange, TP53BP2 relative expression",[1],1.53
same,"FoldChange, TP53 relative expression",[1],0.95
same,"FoldChange, TP73 relative expression",[1],1.38
same,"FoldChange, TRADD relative expression",[1],1.11
same,"FoldChange, TRAF2 relative expression",[1],0.82
same,"FoldChange, TRAF3 relative expression",[1],1.01
same,"FoldChange, XIAP relative expression",[1],1.26
same,distribution of the metal (Rh or Mn) in mitochondrial vs nuclear fraction,HepG2 cells,higher in the mitochondrial fraction than in the nuclear fraction
same,inhibitive ratio T-24,T-24; 20 μmol/L,45.42±1.66%
same,IC50,"T-24; MTT, mean ± SD from five independent experiments",15.4 ± 1.81 µM
